Reference: patent US4075332A (priority 1976, dated 1978)
Like-named read-outs stand apart in the source and are kept apart here.

Columns and labels:
Bean aphids [1] = experiment: Aphid, Systemic; type: in vivo, bean aphid; conditions: Aphis fabae, 48 h, read-out: Mortality Produced, % - Bean Aphids Systemic
Method: (§1) In the insecticidal and miticidal tests, the experimental compounds were tested as aqueous emulsions. These emulsions were prepared by dissolving the compound in acetone and dispersing it in distilled water with Triton X-100, an alkylaryl polyether alcohol derived by the reaction of i-octylphenol with ethylene oxide, to give spray emulsions containing the desired concentrations of the compound. These emulsions were then used in standard laboratory tests described below.
Aphid, Systemic: Nasturtium plants infested with the bean aphid were treated by applying 20 ml. of the formulated test chemical to the soil. The degree of aphid control was rated after 2 days.

Mexican bean beetle = experiment: whole plant or invertebrate; conditions: Epilachna varivestis; for mortality at 50 ppm / mortality at 250 ppm: read-out: Mortality Produced, % - Mex.Bean Beetle
House fly = experiment: whole plant or invertebrate; conditions: Musca domestica, 48 h; for mortality at 50 ppm / mortality at 250 ppm: read-out: Mortality Produced, % - House Flies
Spider mites [2] = experiment: Mite, Systemic; type: in vivo, two-spotted mite; conditions: Tetranychus urticae, read-out: Mortality Produced, % - Spider Mites Systemic
Method: as §1
Mite, Systemic: Bean plants infested with the two-spotted mites were treated by applying 20 ml. of the formulated test chemical to the soil.

Spider mites [3] = experiment: whole plant or invertebrate; conditions: Tetranychus urticae, 48 h, read-out: Mortality Produced, % - Spider Mites Contact
Bean aphids [4] = experiment: whole plant or invertebrate; conditions: Aphis fabae, 48 h
Southern army worm = conditions: southern armyworm, in vivo
Bollworm larvae = experiment: Bollworm test on cotton plants; type: in vivo; conditions: Helicoverpa zea, Table XIV, 0.5 lbs/acre
Method: Bollworms: Bollworm larvae used in the present study were progeny of adult moths collected from light traps stationed in cotton fields. The larvae were reared on the Vanderzant-Adkisson Special Wheat Germ Diet for Insects. This diet was fortified with Vanderzant's Insect Vitamin Fortification. The diet and the vitamin fortification were obtaind from Nutritional Biochemicals Corporation, Cleveland, Ohio. The larvae were reared and tested in continuous illumination at 78±5° […]. Only third and fourth instar larvae which weighed between 25 and 60 mg. were used in the tests.
Insecticidal sprays were made by the conventional low-volume (CLV) method. CLV sprays were applied through a 6X hollow-cone nozzle calibrated to deliver the equivalent of 3.5 ga./acre of the water/emulsion spray mixture. Sprays were applied to individual cotton plants grown in one gallon buckets. After treatment the plants were allowed to dry for 1 to 2 hours in the open air before being transported to a holding room. The larvae were placed on the treated leaf surfaces and held singly in small snap-on type plastic screen cages of about 11/2 inches in diameter. Untreated control groups were maintained for each test replicate so that treatment mortalities could be adjusted according to Abbott's formula. Treatments were replicated 3 times. Each replicate contained 20 larvae. […]

[5] = Thermal stability of products (GC / nmr observation); type: physicochemical; conditions: room temperature
Source text: The corresponding primary alkyl derivatives such as the S'-n-propyl compound are stable under similar conditions.
The ethyl sulfinylmethyl product was unstable at room temperature.

in vivo = conditions: rat, po
[6] = read-out: Mortality Produced, % -
[7] = read-out: Mortality Produced, % - Bean Aphids Contact
[8] = 24 h, read-out: Per Cent Mortality (24 hours After Application)
[9] = 48 h, read-out: Per Cent Mortality (48 hours After Application)
[10] = 72 h, read-out: Per Cent Mortality (72 hours After Application)

| SMILES | mortality at 50 ppm (Bean aphids [1]) [%] | mortality at 250 ppm (Bean aphids [1]) [%] | mortality at 50 ppm (Mexican bean beetle) [%] | mortality at 250 ppm (Mexican bean beetle) [%] | mortality at 50 ppm (House fly) [%] | mortality at 250 ppm (House fly) [%] | mortality at 50 ppm (Spider mites [2]) [%] | mortality at 250 ppm (Spider mites [2]) [%] | mortality at 50 ppm (Spider mites [3]) [%] | mortality at 250 ppm (Spider mites [3]) [%] | further results |
| --- | --- | --- | --- | --- | --- | --- | --- | --- | --- | --- | --- |
| CCCSP(=O)(OC)SCC(C)SC (stereo not drawn) [Example 40, O-Methyl S-1-Propyl S'-2-Methylthiopropyl Dithiophosphate] | 100 | 100 | 0 | 100 | 100 | 100 | 100 | 100 | 100 | 100 | mortality at 50 ppm (Bean aphids [4]; [6]): 100%; mortality at 250 ppm (Bean aphids [4]; [6]): 100% |
| CCCCSP(=O)(OCC)SCC(C)SC (stereo not drawn) [Example 41, O-Ethyl S-1-Butyl S'-Methylthiopropyl Dithiophosphate] | 0 | 40 | 80 | 100 | 0 | 100 | 0 | 100 | 100 | 100 | mortality at 50 ppm (Bean aphids [4]; [7]): 60%; mortality at 250 ppm (Bean aphids [4]; [7]): 100%; Mortality Produced, % - S.Army Worm (Southern army worm): 0% |
| CCOP(=O)(SCC(C)SC)SC(C)C (stereo not drawn) [Example 42, O-Ethyl S-2-Propyl S-2-Methylthiopropyl Dithiophosphate] | 20 | 80 | 100 | 100 | 0 | 100 | 0 | 100 | 100 | 100 | mortality at 50 ppm (Bean aphids [4]; [7]): 50%; mortality at 250 ppm (Bean aphids [4]; [7]): 100% |
| CCCOP(=O)(SCCC)SCC(C)SC (stereo not drawn) [Example 43, O,S-Di-n-propyl S'-2-Methylthiopropyl dithiophosphate] | 0 | 20 | 80 | 100 | 70 | 100 | 0 | 100 | 50 | 100 | mortality at 50 ppm (Bean aphids [4]; [6]): 80%; mortality at 250 ppm (Bean aphids [4]; [6]): 80%; Mortality Produced, % - S.Army Worm (Southern army worm): 0% |
| CCOP(=S)(OCC)SCSc1ccc(Cl)cc1 [Trithion, reference compound] | – | – | – | – | – | – | – | – | – | – | mortality at 100 ppm (Mexican bean beetle; read-out: Mexican Bean Beetle Larvae Mortality, %): 90%; mortality at 20 ppm (House fly; read-out: House Fly Spray Mortality, % (at 20 ppm)): 80%; Southern Army Worm Mortality, % (Southern army worm): 0% |
| CCCSP(=O)(OCC)SCCSC (stereo not drawn) [drawing 52] | – | – | – | – | – | – | – | – | – | – | mortality at 560.425 g/ha (Bollworm larvae; [8]): 72%; mortality at 560.425 g/ha (Bollworm larvae; [9]): 80%; mortality at 560.425 g/ha (Bollworm larvae; [10]): 89% |
| CCCSP(=O)(OCC)SCC(C)SC (stereo not drawn) [drawing 53] | – | – | – | – | – | – | – | – | – | – | mortality at 560.425 g/ha (Bollworm larvae; [8]): 84%; mortality at 560.425 g/ha (Bollworm larvae; [9]): 96%; mortality at 560.425 g/ha (Bollworm larvae; [10]): 96% |
| CCCSC(C)CSP(=O)(OCC)SCCC (stereo not drawn) [drawing 54] | – | – | – | – | – | – | – | – | – | – | mortality at 560.425 g/ha (Bollworm larvae; [8]): 87%; mortality at 560.425 g/ha (Bollworm larvae; [9]): 94%; mortality at 560.425 g/ha (Bollworm larvae; [10]): 99% |
| CCCSP(=O)(OCC)SC[S+]([O-])CC (stereo not drawn) [ethyl sulfinylmethyl product] | – | – | – | – | – | – | – | – | – | – | stability (nmr) [5]: unstable |
| CCOP(=O)(SCC)SCCSCC (stereo not drawn) [reference compound] | – | – | – | – | – | – | – | – | – | – | LD50 at 336 h (in vivo): 100 mg/kg |
| CCOP(=S)(OCC)SCC(C)SC (stereo not drawn) [reference compound] | – | – | – | – | – | – | – | – | – | – | LD50 at 336 h (in vivo): 25 to 50 mg/kg |
| CCOP(=S)(OCC)SCC(C)SCC (stereo not drawn) [reference compound] | – | – | – | – | – | – | – | – | – | – | LD50 at 336 h (in vivo): 25 to 50 mg/kg |
